Structures can show the parent of a compound that is named as a salt.
Biological target: human cloned 5-HT6 receptors (Homo sapiens, UniProt P50406)
Sequence (P50406 whole entry): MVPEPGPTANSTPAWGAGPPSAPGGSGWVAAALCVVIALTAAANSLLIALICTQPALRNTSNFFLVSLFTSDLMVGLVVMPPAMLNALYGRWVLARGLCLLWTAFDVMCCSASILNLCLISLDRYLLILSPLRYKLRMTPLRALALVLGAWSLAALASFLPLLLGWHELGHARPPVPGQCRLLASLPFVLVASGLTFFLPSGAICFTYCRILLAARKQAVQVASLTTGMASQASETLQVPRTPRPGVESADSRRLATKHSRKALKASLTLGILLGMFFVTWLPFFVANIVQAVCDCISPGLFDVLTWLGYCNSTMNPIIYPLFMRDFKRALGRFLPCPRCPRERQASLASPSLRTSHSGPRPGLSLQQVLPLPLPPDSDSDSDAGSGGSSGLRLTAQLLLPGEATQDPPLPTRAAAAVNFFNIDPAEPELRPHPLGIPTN

Q: With `CN1CCC(c2n[nH]c3ccc(S(=O)(=O)c4cccc5ccccc45)cc23)CC1` [Example 4, 3-(1-Methylpiperidin-4-yl)-5-(1-naphthylsulfonyl)-1H-indazole hydrochloride] as the molecule, how does the Ki read?
A: Its Ki is 3.8 nM.

Q: `CN1CCC(c2n[nH]c3ccc(S(=O)(=O)c4ccccc4)cc23)CC1` [Example 5, 3-(1-methylpiperidin-4-yl)-5-(phenylsulfonyl)-1H-indazole] was tested. Which Ki did it give?
A: Its Ki is 55 nM.

Q: `CN1CCC(c2n[nH]c3ccc(S(=O)(=O)c4cccc(F)c4)cc23)CC1` [Example 6, 5-[(3-fluorophenyl)sulfonyl]-3-(1-methylpiperidin-4-yl)-1H-indazole] was tested. Which Ki did it give?
A: The Ki was 93 nM.

Q: For `CN1CCC(c2n[nH]c3ccc(S(=O)(=O)c4cccc(Cl)c4)cc23)CC1` [Example 7, 5-[(3-chlorophenyl)sulfonyl]-3-(1-methylpiperidin-4-yl)-1H-indazole], which Ki is on record?
A: The Ki was 19 nM.

Q: For `CN1CCC(c2n[nH]c3ccc(S(=O)(=O)c4ccc(F)cc4)cc23)CC1` [Example 8, 5-[(4-fluorophenyl)sulfonyl]-3-(1-methylpiperidin-4-yl)-1H-indazole], which Ki is on record?
A: Its Ki is 66 nM.

Q: Which Ki does the source give for `Cc1cccc(S(=O)(=O)c2ccc3[nH]nc(C4CCN(C)CC4)c3c2)c1` [Example 9, 5-[(3-methylphenyl)sulfonyl]-3-(1-methylpiperidin-4-yl)-1H-indazole] here?
A: Its Ki is 50 nM.

Q: Which Ki does the source give for `CN1CCC(c2n[nH]c3ccc(S(=O)(=O)c4ccc(C(F)(F)F)cc4)cc23)CC1` [Example 10, 3-(1-methylpiperidin-4-yl)-5-{[4-(trifluoromethyl)phenyl]sulfonyl}-1H-indazole] here?
A: The Ki was 46 nM.

Q: For `CN1CCC(c2n[nH]c3ccc(S(=O)(=O)c4ccc(OC(F)(F)F)cc4)cc23)CC1` [Example 11, 3-(1-methylpiperidin-4-yl)-5-{[4-(trifluoromethoxy)phenyl]sulfonyl}-1H-indazole], which Ki is on record?
A: Its Ki is 48 nM.

Q: With `CC(C)c1ccc(S(=O)(=O)c2ccc3[nH]nc(C4CCN(C)CC4)c3c2)cc1` [Example 12, 5-[4-(isopropylphenyl)sulfonyl]-3-(1-methylpiperidin-4-yl)-1H-indazole] as the molecule, how does the Ki read?
A: The Ki was 14 nM.

Q: With `CN1CCC(c2n[nH]c3ccc(S(=O)(=O)c4ccc5ccccc5c4)cc23)CC1` [Example 13, 3-(1-methylpiperidin-4-yl)-5-(2-naphthylsulfonyl)-1H-indazole] as the molecule, how does the Ki read?
A: The Ki was 9.6 nM.

Q: How did the Ki turn out when `COc1ccc(S(=O)(=O)c2ccc3[nH]nc(C4CCN(C)CC4)c3c2)cc1` [Example 14] was run?
A: The Ki was 123 nM.
